Data from patent US12454529B2, “Piperazine cyclic ureas” (SIRONAX LTD., priority 2020, dated 2025).
Where two headings read alike, the source gives them in different places.

Test system: HT-29 cells
Test: HT-29 cell necrosis/necroptosis inhibition (TNF-α + SMAC mimetic + zVAD-FMK; CellTiter-Glo cell viability)
Type: cell-based
Settings: Homo sapiens, HT-29 cells, TNF-α 10 ng/ml + SMAC mimetic 6 μM + zVAD-FMK 10 μM, 20 hours, geometric mean, 10 points in duplicate
Method in brief: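 HT-29 cells (~5,000/well) were switched to FBS-free McCOY's 5A holding TNF-α (10 ng/ml), SMAC mimetic (6 μM) and zVAD-FMK (10 μM), then dosed with a 10-point 1:3 series for 20 h at 37 °C. CellTiter-Glo luminescence gave viability; geometric mean EC50 from duplicates.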

[1] = read-out: EC50 (Cell activity; Necrosis/Necroptosis Inhibitory Activity, Compounds 143-323)
[2] = read-out: EC50 (Cell activity; Necrosis/Necroptosis Inhibitory Activity, Compounds 1-142)

Row | SMILES | EC50 [1] [nM] | EC50 [2] [nM]
1 | Cn1nc(C#N)nc1-c1nc(N2CCN(C(=O)N3N=CCC3c3cncc(F)c3)CC2)ncc1F (stereo not shown) [Compound 229, 5-(5-fluoro-2-(4-(5-(5-fluoropyridin-3-yl)-4,5-dihydro-1H-pyrazole-1-carbonyl)piperazin-1-yl)pyrimidin-4-yl)-1-methyl-1H-1,2,4-triazole-3-carbonitrile] | 0.1 to 100 | –
2 | Cc1cc(O)n(-c2nc(N3CCN(C(=O)N4N=CC[C@H]4c4cc(F)cc(C#N)c4)CC3)ncc2F)n1 [Compound 141, (S)-3-fluoro-5-(1-(4-(5-fluoro-4-(5-hydroxy-3-methyl-1H-pyrazol-1-yl)pyrimidin-2-yl)piperazine-1-carbonyl)-4,5-dihydro-1H-pyrazol-5-yl)benzonitrile] | – | 0.1 to 100
3 | Cc1nnc(-c2nc(N3CCN(C(=O)N4N=CC[C@H]4c4cncc(F)c4)CC3)ccc2F)s1 [Compound 173, (S)-(4-(5-fluoro-6-(5-methyl-1,3,4-thiadiazol-2-yl)pyridin-2-yl)piperazin-1-yl)(5-(5-fluoropyridin-3-yl)-4,5-dihydro-1H-pyrazol-1-yl)methanone] | 0.1 to 100 | –
4 | N#Cc1cc(F)cc([C@@H]2CC=NN2C(=O)N2CCN(c3ncc(F)c(-c4ncc[nH]4)n3)CC2)c1 [Compound 112, (S)-3-fluoro-5-(1-(4-(5-fluoro-4-(1H-imidazol-2-yl)pyrimidin-2-yl)piperazine-1-carbonyl)-4,5-dihydro-1H-pyrazol-5-yl)benzonitrile] | – | 0.1 to 100
